Laboratory results: US20150359798A1, “PIPERAZINYL DERIVATIVE REDUCES HIGH-FAT DIET-INDUCED ACCUMULATION OF FAT IN THE LIVERS, […]” (priority 2011, published 2015)

Columns and labels:
[1] = test system: mice fed with HFD; assay: HFD-fed mice, 8 weeks, gavage: serum/liver lipids, body weight, food intake; assay type: in vivo; details: HFD mice, 8 weeks
Protocol: In the 8 week experiment, C57BL/6J male mice (21-22 g), after fasting, were fed a HFD as a model of hyperlipidemia for 8 weeks. During the 2 month experiments, mice fasted for one night before the experiment was changed from a standard diet (STD) to a HFD and then the mice were randomly divided into 5 groups, including 2 control and 3 treatment groups. Six mice were used in each group. […] Liver from the protection group supplemented with KMUP-1 HCl (1 mg/kg/day) were used to determine the HMG CoA reductase expression.
Within 2 months, the 3 day food intake average for each animal was measured. The weight gain and plasma lipid levels of each group were determined and compared to the non-treatment control group. Mouse blood was collected during the daytime by cardiac puncture followed by centrifugation at 90 g (Benchtop Centrifuge, U.S.A.) to separate the serum, and frozen at −80° C., for biochemical analysis using a Hitachi Clinical Analyzer 7070 (Hitachi High-Technologies Co. Tokyo, Japan). Agents used in the assays were Obtained from Merck & Co. (Kenilworth, N.J., U.S.A.). Triglyceride (TG), total cholesterol, HDL cholesterol and LDL cholesterol in mouse serum were measured by methods used in the clinic. To measure the hepatic TG, isolated liver were cut into small chips.

[2] = test system: p-HSL; assay: IHC staining of p-HSL in steatohepatitis liver; assay type: in vivo, mice; details: treatment and protection groups
Protocol: (§1) In the 14-week experiment, mice were fed a HFD from week 1 to week 14. During the 3 month experiments, KMUP-1 HCl (2.5 mg) was added to 200 ml tap water and) and drink for 14 weeks or for the last 6 weeks on mice or obese mice fed HFD, separately. 5 mice had free access to drinking water from week 1 to week 14 (protective group) or from week 8 to week 14 (treatment group). Tap water was used to normalize mineral nutrition (Scheme A).
(§2) For IHC of MMP-9/TNFα, HSL/p-HSL/ATGL and eNOS/IL-10, antigen retrieval of de-paraffinated sections was performed in Dako target retrieval solution, pH 9.0, in a vegetable steamer followed by the quenching of endogenous peroxidase activity with 3.0% H2O2 in methanol. Sections were then incubated with specific primary antibodies overnight at 4° C. in a humidified chamber. The antibodies used included rabbit polyclonal anti-eNOS (1:50 dilution) (Abcam, Cambridge, UK) or rabbit monoclonal anti-cleaved caspase-3 (1:50 dilution) (Cell Signaling, USA). The sections were then examined using a DAKO REAL EnVision™ Detection System kit (DAKO, Carpinteria, Calif.) and counterstained with hematoxylin. Images were obtained through a Nikon Eclipse TE200-S microscope.

[3] = test system: ATGL; assay: IHC staining of ATGL in steatohepatitis liver; assay type: in vivo, mice; details: more prominent in protection than treatment groups
Protocol: as §1, §2

[4] = test system: HMG CoA reductase; assay: HMG CoA reductase expression in HepG2 cells (Western blotting); assay type: cell-based
Protocol: The HepG2 hepatoma cell line was purchased from the American Type Culture Collection (ATCC; Manassas, Va., U.S.A.). Cells were cultured in DMEM. The culture media was supplemented with 5% heat-Inactivated FBS, penicillin (100 U/mL) and streptomycin (100 μg/mL). Cells were grown in a humidified atmosphere containing 5% CO2 at 37° C., in which the oxygen tension in the incubator was held at 140 mmHg (20% O2, v/v; normoxic conditions).
HepG2 cells were treated with various concentrations of drugs for 24 hours. Reactions were terminated by washing twice with cold PBS, and the cells were then harvested, Proteins in the whole-cell lysate were homogenized in an ice-cold lysis buffer and a protease inhibitor (Sigma-Aldrich, St. Louis, Mo., U.S.A.). The homogenate was centrifuged at 90, 000 g for 15 minutes at 4° C., and supernatant was recovered as the total cellular protein. Cytosolic and membrane fractions of HepG2 cells were prepared using a. CNM (Cytosol Nuclear Membrane) compartment protein extraction kit (BioChain Institute Inc., Hayward, Calif., U.S.A.) according to the manufacturer's instructions. All of the fractionated protein solutions were stored at −80° C. until analysis. To measure the expression levels of proteins by drugs, the total cell protein was extracted after incubation with treatments for 24 hours and then Western blotting analysis was performed as described previously.

[5] = test system: LXRα; assay: LXRα expression in HepG2 cells; assay type: cell-based; details: HepG2, 10^−9-10^−5 M
Protocol: HepG2 cells were treated with various concentrations of drugs for 24 hours. […] All of the fractionated protein solutions were stored at −80° C. until analysis. To measure the expression levels of proteins by drugs, the total cell protein was extracted after incubation with treatments for 24 hours and then Western blotting analysis was performed as described previously.

[6] = test system: PKA; assay: PKA expression and immunoreactivity in HepG2 cells; assay type: cell-based
[7] = test system: LDLR; assay: Fluorescence staining of LDLRs in HepG2 cells; assay type: cell-based
Protocol: HepG2 cells were used to determine the cellular protein expression of LDLRs in the presence of exogenous LDL (500 μg/mL) Bodipy-493/503 ([…]) overnight at 4° C., followed by merger of obtained BODIPY- and LDL-images to analyze the location of LDLRs. All images were collected and analyzed by scanning with Nikon Eclipse TE200-S microscope (Tokyo, Japan).

[8] = test system: PPAR-γ; assay: Table 3 PPAR-γ (% of control); assay type: cell-based; details: control group = 100 (%)

Q: Which HDL cholesterol level [1] does the source give for `Cn1c(=O)c2c(ncn2CCN2CCN(c3ccccc3Cl)CC2)n(C)c1=O` [KMUP-1, 7-[2-[4-(2-chlorophenyl)piperazinyl]ethyl]-1,3-dimethyl xanthine] here?
A: Its HDL cholesterol level is “significantly increased”.

Q: What about the HFD-induced hypercholesterolemia [1] of the same molecule?
A: The HFD-induced hypercholesterolemia was “significantly improved”.

Q: What about the HDL cholesterol ([1]; 2.5 mg/kg) of the same molecule?
A: The HDL cholesterol was 103.6 ± 4.2 mg/dL.

Q: What about the LDL cholesterol ([1]; 2.5 mg/kg) of the same molecule?
A: Its LDL cholesterol is 14.2 ± 1.4 mg/dL.

Q: What about the TG in serum ([1]; 2.5 mg/kg) of the same molecule?
A: The TG in serum was 74.5 ± 5.1 mg/dL.

Q: And the TG of liver ([1]; 2.5 mg/kg)?
A: Its TG of liver is 28.4 ± 3.6 mg/dL.

Q: What about the “Tot. chol. (total cholesterol)” value ([1]; 2.5 mg/kg) of the same molecule?
A: The value was 133.0 ± 5.1 mg/dL.

Q: What about the “final BW (Body weight)” value ([1]; 2.5 mg/kg) of the same molecule?
A: The value was 25.7 ± 0.7 g.

Q: And the HDL cholesterol ([1]; 5 mg/kg)?
A: Its HDL cholesterol is 118.3 ± 5.7 mg/dL.

Q: And the LDL cholesterol ([1]; 5 mg/kg)?
A: The LDL cholesterol was 14.2 ± 2.2 mg/dL.

Q: What about the TG in serum ([1]; 5 mg/kg) of the same molecule?
A: Its TG in serum is 72.7 ± 4.7 mg/dL.

Q: What about the TG of liver ([1]; 5 mg/kg) of the same molecule?
A: The TG of liver was 26.12 ± 3.1 mg/dL.

Q: And the “Tot. chol. (total cholesterol)” value ([1]; 5 mg/kg)?
A: Its value is 125.5 ± 9.8 mg/dL.

Q: What about the “final BW (Body weight)” value ([1]; 5 mg/kg) of the same molecule?
A: Its value is 24.3 ± 0.5 g.

Q: What about the “p-HSL (IHC, liver)” value [2] of the same molecule?
A: Its value is “activation”.

Q: What about the “ATGL lipolysis (IHC, liver)” value [3] of the same molecule?
A: The value was “induced”.

Q: And the “mevalonate (100 μM)-inhibited HMG CoA reductase expression” value ([4]; HepG2, 10^−5M)?
A: Its value is “prevented”.

Q: And the “HMG CoA reductase expression” value ([4]; HepG2, serum/vehicle-containing medium, 10^−9-10^−5M, 24 hours)?
A: Its value is “concentration-dependently increased”.

Q: And the LXRα expression [5]?
A: The LXRα expression was “concentration-dependently increased”.

Q: What about the “PKA immunoreactivity (green fluorescence)” value [6] of the same molecule?
A: Its value is “increased”.

Q: And the “oxLDL (200 μg/mL)-induced reduction of PKA expression” value ([6]; 1, 10, 100 μM)?
A: Its value is “reversed”.

Q: What about the PKA protein expression ([6]; 10, 20, 40 µM, in the presence of LDL (500 μg/mL)) of the same molecule?
A: Its PKA protein expression is “could not significantly affect”.

Q: And the “LDLR (green fluorescence) expression” value ([7]; HepG2, 24 hours, KMUP-1 10^−6, 10^−5, 10^−4 M, simvastatin 10^−5 M)?
A: Its value is “increased”.

Q: And the “LDLR fluorescence at high concentration” value ([7]; HepG2, concentrations >10^−4 M, near the viability range)?
A: The value was “decline in fluoresence”.

Q: And the PPAR-γ ([8]; 0.1 μM)?
A: The PPAR-γ was 123.5 ± 17.3%.

Q: And the PPAR-γ ([8]; 1.0 μM)?
A: Its PPAR-γ is 135.6 ± 14.5%.

Q: What about the PPAR-γ ([8]; 10 μM) of the same molecule?
A: Its PPAR-γ is 142.6 ± 15.4%.
